Data taken from patent US10927170B2, “Anti-claudin 1 monoclonal antibodies for the prevention and treatment of hepatocellular carcinoma” (INSTITUT HOSPITALIER UNIVERSITAIRE DE STRASBOURG, priority 2015, dated 2021).

Tests used:
[1] = system: HCV Jc1-infected Huh7.5.1^dif cells; assay: 186-gene HCC risk signature (nCounter, GSEA, nearest template prediction) in persistently HCV Jc1-infected Huh7.5.1^dif cells; assay type: cell-based, human; settings: for Reversal of HCC high-risk genes as shown by GSEA (FIG. 2A): DAA 1 nM DCV+1 μM SOF, interferon alpha-2a 10 IU/ml, erlotinib 0.1 μM, pioglitazone 1 μM, metformin 3 μM, mAb 1, 10 and 100 μg/ml
Experimental: Huh7.5.1 cells have already been described (Zhong et al., Proc Natl Acad Sci USA, 2005, 102(26): 9294-9299). For proliferation arrest and differentiation (Huh7.5.1^dif cells), 2.5.10^4 to 3.10^4 Huh7.5.1 cells were cultured in Dulbecco's Modified Eagle Medium (DMEM) containing 1% dimethylsulfoxide (DMSO).
Cell culture-derived HCVcc Jc1 (genotype 2a/2a) (Pietschmann et al., Proc Natl Acad Sci USA, 2006, 103(19): 7408-7413) were generated in Huh7.5.1 cells as previously described (Wakita et al., Nat Med., 2005, 11(7): 791-796). HCVcc infectivity was determined by calculating the 50% tissue culture infectious doses (TCID50) in infection experiments as previously described (Lindenbach et al., Science, 2005, 309(5734): 623-626). HCV infection was assessed by qRT-PCR of intracellular HCV RNA (Xiao et al., Gut, 2015, 64(3): 483-494) as well as by immunostaining using an HCV E2-specific AP33 antibody as previously described (Krieger et al., Hepatology. 2010, 51(4): 1144-1157).
Liver cells were lysed in TRI-reagent (Molecular Research Center), and RNA was purified using Direct-zol RNA MiniPrep (Zymo Research) according to the manufacturer's instructions. RNA quantity and quality were assessed using NanoDrop (ThermoScientific) and Bioanalyzer 2100 ([…]). Gene expression profiling was performed using 250-500 ng total RNA by using nCounter Digital Analyzer system (NanoString).
Cells incubated with 1% DMSO served as negative control. Three (3) days after treatment, the cells were lysed, total RNA was purified as described above, and analyzed for gene expression and intracellular viral load as described above.
Prediction of clinical outcome based on the 186-gene signature was performed as previously reported by using the nearest template prediction algorithm, which was implemented in GenePattern (King et al., Gut, 2014, 20. pii: gutjn1-2014-307862. doi: 10.1136/gutjn1-2014-307862; Hoshida et al., PLoS ONE, 2010, 5(11), e15543). A prediction of HCC high-risk or low-risk gene signature was determined using p<0.05 and FDR<0.25. Induction/suppression of each gene set over time according to HCV Jc1 infection and uninfected control was assessed through GSEA and single sample GSEA (ssGSEA) modules implemented in GenePattern as previously described (Subramanian et al., Proc Natl Acad Sci USA, 2005, 102(43): 15545-15550; Barbie et al., Nature, 2009, 462(7269): 108-112). […] Using differentially expressed genes, network analysis was performed using canonical pathways from Ingenuity Knowledge Base repository (Ingenuity Systems Inc.).

[2] = system: rodent models of cirrhosis-driven HCC; settings: Fuchs et al., Hepatology, 2014; cited from earlier work
[3] = 186-gene signature, treatment from day 7 post-infection, nCounter assay

SMILES	NES, HCC high-risk genes (GSEA) [1, 3]	NES, HCC low-risk genes (GSEA) [1, 3]	Reversal of HCC high-risk genes as shown by GSEA (FIG. 2A) [1]	186-gene HCC risk signature [2]	Liver fibrosis and HCC nodules [2]
C#Cc1cccc(Nc2ncnc3cc(OCCOC)c(OCCOC)cc23)c1 [erlotinib]	−1.28	1.26	partially reverses	reversed	reduced liver fibrosis and HCC nodules
CN(C)C(=N)N=C(N)N [metformin]	–	–	had no effect	–	–
